Experimental data reported in ChEMBL document CHEMBL3507680, “University of Dundee, Gates Library screen for HepG2 cell viability”.

test: Human HepG2 cell viability assay in 384 well format; assay type: toxicity, cell-based; design: dose 125 nL, time 70.5 hour; cytotoxicity at 70.5 h: concentration not given beside the values; conditions: HepG2 cells, read-out: Inhibition

Row | Compound | cytotoxicity at 70.5 h [%]
1 | CC1CCN(CCNC(=O)c2ccn(-c3ccc(F)cc3)n2)CC1 | -5.04
2 | Cc1csc(N2CCN(C(=O)Cc3cccs3)CC2)n1 | -2.84
3 | CCOc1cc(F)ccc1NC(=O)N(C)Cc1cnn(C)c1 | -5.78
4 | CCNC(=O)NCCCn1nc2ccccn2c1=O | -9.28
5 | Cc1ccn2ncc(C(=O)N3CCCC(n4ccnc4C)C3)c2n1 (configuration not stated) | -2.96
6 | CC(Cn1cccn1)NCc1csc(-c2ncccn2)n1 (configuration not stated) | 3.56
7 | c1ccc(-c2noc(CCCN3CCCC3Cn3cccn3)n2)cc1 (configuration not stated) | 10.7
8 | CC(Cn1cccn1)NCc1csc(COc2ccccc2)n1 (configuration not stated) | -2.25
9 | c1ccc(-c2nc(CN3CCCC(Cn4cncn4)C3)cs2)cc1 (configuration not stated) | -6.56
10 | CC(O)CN1CCC(CNCc2cccc(C(F)(F)F)c2)CC1 (configuration not stated) | 2.27
11 | Cc1nnc(CN2CCCC(c3noc(C4CC4)n3)C2)o1 (configuration not stated) | -4.3
12 | CN1CCCN(C(=O)NCCNc2ncccn2)CC1 | 17.7
13 | CC(C)(C)c1nc(CN2CCCC(c3noc(C4CC4)n3)C2)no1 (configuration not stated) | -4.22
14 | c1csc(-c2noc(CCCN3CCCC3Cn3cncn3)n2)c1 (configuration not stated) | 2.46
15 | c1coc(-c2nc(CN3CCCC(Cn4cncn4)C3)cs2)c1 (configuration not stated) | 20.4
16 | Cc1cccc(OCC(=O)N2CCN(C3CCOC3=O)CC2)c1C (configuration not stated) | -2.32
17 | CCCc1ccc(S(=O)(=O)NC(=O)CCC2CCCO2)cc1 (configuration not stated) | 3.11
18 | COc1ccc2cc(CNCc3c(C)nn(C)c3N(C)C)ccc2c1 | 23
19 | Cc1nc(-c2ccccc2)n(CC(=O)NC(C)(C)C)n1 | 1.44
20 | CCC(C)(C)NC(=O)Cn1nc(C)nc1-c1ccccc1 | -0.158
21 | Cc1cccc(-c2nc(C)nn2CC(=O)NCC(C)C)c1 | 5.13
22 | O=C1COc2cc(C(=O)N3CCCC(n4cccn4)C3)ccc2N1 (configuration not stated) | -1.96
23 | Cc1ccc(-c2nc(CN3CCCC(Cn4cncn4)C3)cs2)o1 (configuration not stated) | 6.82
24 | O=C(NCCOC1CCCCC1)c1ccc(-c2ccco2)[nH]c1=O | 15.1

Row | Compound | cytotoxicity at 70.5 h [%]
25 | Cc1csc(C2CCCN(C(=O)c3c[nH]c(C)n3)C2)n1 (configuration not stated) | -1.13
26 | CCc1csc(C2CCCN(C(=O)c3cc(Cl)c[nH]3)C2)n1 (configuration not stated) | 2.15
27 | Cc1ccc(-c2nnc(CN3CCc4nn(C)c(=O)cc4C3)o2)cc1 | 3.35
28 | CCc1nc(C2CCCN2CCCc2nc3ccccc3o2)no1 (configuration not stated) | -0.084
29 | O=C(NCC(F)(F)F)c1ccc(-c2ccco2)[nH]c1=O | -4.71
30 | COc1cc(C(=O)N2CCCC(c3cc(C)[nH]n3)C2)ccc1C (configuration not stated) | 19.1
31 | CCOCC(O)CN1CCN(C(=O)C(C)(C)CC)CC1 (configuration not stated) | 18.6
32 | COCc1ccccc1C(=O)N1CCCC(c2cc(C)[nH]n2)C1 (configuration not stated) | 26.2
33 | O=C(NCc1ccc(-n2cncn2)nc1)c1cc(Cl)c2c(c1)OCCO2 | -3.48
34 | COc1ccc(CC(=O)Nc2cccnc2N2CCCC2)cc1OC | -1.14
35 | COc1ccc(CNC(=O)Nc2cccnc2OC)cc1O | 22.7
36 | O=C(Cc1ccc2c(c1)OCCO2)NCc1ccc(-n2cncn2)nc1 | -2.42
37 | Cc1ccccc1OCCC(=O)NC(C)c1nnc2n1CCCCC2 (configuration not stated) | -2.91
38 | Cc1cnn(CC2CN(Cc3nc(C)no3)CCO2)c1 (configuration not stated) | -1.3
39 | CCCN1CCN(CC(O)c2ccc(OC(F)(F)F)cc2)CC1 (configuration not stated) | -0.084
40 | N#Cc1ccccc1OCCN1CCCC1Cn1cncn1 (configuration not stated) | 3.66
41 | COCCN1CCN(CC(O)c2ccc(OC(F)(F)F)cc2)CC1 (configuration not stated) | -2.07
42 | Cc1nn(C)c(C)c1C1CCCN1CC(=O)NCc1ccco1 (configuration not stated) | 7.36
43 | CC(C)c1nc2n(n1)CC(NCc1ncc(C(C)(C)C)o1)CC2 (configuration not stated) | 0.95
44 | O=C(COCCc1ccccc1)N1CCCC(n2cncn2)C1 (configuration not stated) | 1.67
45 | COc1ccc(Cl)cc1C(=O)N1CCCC(c2cc(C)[nH]n2)C1 (configuration not stated) | 0.303
46 | c1cnnc(N2CCCC(NCc3cccc4c3OCCO4)C2)c1 (configuration not stated) | 6.38
47 | Cc1nn(C)c(C)c1NC(=O)CN1CCCC1c1c(C)nn(C)c1C (configuration not stated) | -3.45
48 | OC(CN1CCCCCCC1)c1ccc(OC(F)(F)F)cc1 (configuration not stated) | 7.33

Row | Compound | cytotoxicity at 70.5 h [%]
49 | Cc1ccc(N2CCCC(NCc3cccc4c3OCO4)C2)nn1 (configuration not stated) | -0.527
50 | O=C(CCCOCc1ccccc1)N1CCCC(n2cncn2)C1 (configuration not stated) | -1.64
51 | Fc1ccccc1OCCN1CCCCC1Cn1cncn1 (configuration not stated) | 2.55
52 | CN(Cc1ccccn1)C1CCCN(c2cccnn2)C1 (configuration not stated) | 3.01
53 | CCc1nccn1C1CCCN(C(=O)C2=NN(C)C(=O)CC2)C1 (configuration not stated) | -8.58
54 | CC(C)Cc1noc(CN2CCCC2c2noc(C3CC3)n2)n1 (configuration not stated) | -10.4
55 | Cc1nc(C)n(C2CCCN(C(=O)c3csc(CC(C)C)n3)C2)n1 (configuration not stated) | -13.9
56 | COc1cccc(COCC(=O)N2CCCC(c3ccn[nH]3)C2)c1 (configuration not stated) | 20.5
57 | CCCc1noc(CN2CCCC2c2noc(C3CC3)n2)n1 (configuration not stated) | -4.28
58 | COc1cc(C(=O)N2CCCC(CNS(C)(=O)=O)C2)ccc1C (configuration not stated) | 15.8
59 | CS(=O)(=O)NCC1CCCN(C(=O)c2ccc(F)c(F)c2)C1 (configuration not stated) | -1.98
60 | Cc1ccc(C(=O)N2CCCC(CNS(C)(=O)=O)C2)o1 (configuration not stated) | -7.3
61 | CCc1ccc(C(=O)N2CCCC(CNS(C)(=O)=O)C2)o1 (configuration not stated) | -10.7
62 | CC(Cn1cccn1)NC(=O)N1CCN(Cc2ccncc2)CC1 (configuration not stated) | -5.78
63 | CCNC(=O)C1CCN(Cc2csc(-c3ccc(C)o3)n2)CC1 | 0.934
64 | CCn1cnnc1CNC(=O)c1ccc(Cl)cc1F | -4.7
65 | CC(NC(=O)NCCCN(C)S(C)(=O)=O)c1cccc(Cl)c1 (configuration not stated) | -7.23
66 | CC(NC(=O)NCCCN(C)S(C)(=O)=O)c1ccncc1 (configuration not stated) | -3.33
67 | CC(=O)c1cccc(S(=O)(=O)N2CSCC2C(=O)NCC(F)(F)F)c1 (configuration not stated) | 5.48
68 | O=C(NCC(F)(F)F)C1CSCN1S(=O)(=O)c1ccc(F)cc1 (configuration not stated) | -4.65
69 | O=C(Cc1csc(-c2ccco2)n1)N1CCN(c2cnccn2)CC1 | 1.22
70 | CC(=O)Nc1nc(C(=O)Nc2ccc(N3CCCCC3)nc2)cs1 | 13.7
71 | COC(=O)C(c1cc(F)ccc1F)N(C)C(=O)c1ccnc(C)n1 (configuration not stated) | 1.49
72 | c1ccc(Cn2ccnc2CN2CCOC(Cn3cccn3)C2)cc1 (configuration not stated) | 2.05

Row | Compound | cytotoxicity at 70.5 h [%]
73 | Cn1cc(C(=O)NCC2CCN(C(=O)NCC(F)(F)F)CC2)cn1 | 2.26
74 | COCCc1noc(CN2CCN(CC(O)c3ccccc3)CC2)n1 (configuration not stated) | -6.23
75 | CCCc1nc(CN2CCN(CC(O)c3ccccc3)CC2)no1 (configuration not stated) | -0.214
76 | Cn1cc(C(=O)NC2CCN(C(=O)NCC3CCSCC3)CC2)cn1 | -3.27
77 | O=C(CCc1ccc(Br)cc1F)NS(=O)(=O)c1ccc2c(c1)OCCO2 | -3.13
78 | Cc1cc(CN(Cc2cccs2)CC2CCCO2)no1 (configuration not stated) | -0.996
79 | CCCc1n[nH]c(C2CN(CCCOc3ccccc3)CCO2)n1 (configuration not stated) | -6.69
80 | COCc1nc(C(=O)N2CCCC2c2c(C)nn(C)c2C)cs1 (configuration not stated) | -6.67
81 | Cc1cc(C)n(CC2CCCN2C(=O)c2ccc3c(c2)OCO3)n1 (configuration not stated) | 6.92
82 | COc1ccc(OCCNCCn2cccn2)cc1 | 3.51
83 | O=C(Cc1csc(-c2ccco2)n1)N1CCN(CCO)CC1 | 5.35
84 | Cc1cc(C)n(C2CCCN(C(=O)CCNS(C)(=O)=O)C2)n1 (configuration not stated) | 14.9
85 | Cc1ccc(NC2CCN(C(=O)COc3cccnc3)CC2)nn1 | 22
86 | CCc1nc(CN2CCN(C(=O)CCc3ccccc3)CC2)cs1 | 3
87 | c1cc(CNCC2CNc3ccnn3C2)cc(N2CCCCC2)n1 (configuration not stated) | 25.3
88 | c1ccc(Oc2cc(CNCC3CNc4ccnn4C3)ccn2)cc1 (configuration not stated) | -2.96
89 | CCOc1cc(/C=C/c2ncc(C(=O)O)s2)cc(Cl)c1OC | 9.41
90 | CCOc1ncccc1C(=O)NCCN(CC)C1CC1 | 0.543
91 | O=C(NCc1cccc2cccnc12)N1CCC(n2cncn2)CC1 | -1.7
92 | CCc1nccn1C1CCCN(C(=O)CCCNc2ncccn2)C1 (configuration not stated) | -1.35
93 | O=C(c1ccn[nH]1)N1CCCC(n2cncn2)C1 (configuration not stated) | 5.61
94 | COCCCNC(=O)CN1CCCC1c1c(C)nn(C)c1Cl (configuration not stated) | 27.1
95 | O=C(c1cnc(-c2ccco2)s1)N1CCCC1Cn1cccn1 (configuration not stated) | 1.15
96 | CC1CCN(S(=O)(=O)NCCCn2cncn2)CC1 | -0.69

Row | Compound | cytotoxicity at 70.5 h [%]
97 | Cc1nc(C)n(CC2CCCN(CCCOc3ccccc3)C2)n1 (configuration not stated) | -0.0538
98 | Cn1cc(C(=O)CC2CCCN2C(=O)c2cncc3ccccc23)cn1 (configuration not stated) | 3.04
99 | Cc1nc(-c2ccco2)ccc1C(=O)N1CCCC1Cn1cccn1 (configuration not stated) | 7.82
100 | COc1ccc(CCN2CCCC(Cn3nc(C)nc3C)C2)cc1 (configuration not stated) | -2.31
101 | CC(O)CN1CCN(C(=O)c2ccc(Cn3cccc3)cc2)CC1 (configuration not stated) | -2.78
102 | CCn1cnnc1CNC(=O)N(C)Cc1ccc2c(c1)OCCO2 | 6.83
103 | Cc1nc(C)n(CC2CCCN(Cc3nc(C)c(C)o3)C2)n1 (configuration not stated) | 13.2
104 | CCC1CN(CCC(=O)N(C)C)CCN1CCOC (configuration not stated) | -8.66
105 | CCC1CN(CC(=O)N2CCC2)CCN1CCOC (configuration not stated) | -2.85
106 | Cc1nc(C)n(CC2CCCN(c3ncnc4ccsc34)C2)n1 (configuration not stated) | 26.2
107 | CCn1cnnc1CNC(=O)CCC(=O)c1ccc2c(c1)OCCO2 | -9.39
108 | Cc1ccc(C(=O)N2CCCC(NC(=O)C(C)C)C2)c(O)c1 (configuration not stated) | -3.17
109 | Cc1ccc(C(=O)N2CCCC(C(=O)N3CCCCC3)C2)c(O)c1 (configuration not stated) | 13.3
110 | CC(=O)NC1CCCN(C(=O)c2ccc(Br)cc2O)C1 (configuration not stated) | -8.57
111 | COCCN(CCc1ccccc1)Cc1nc2c(cnn2C)c(=O)[nH]1 | -3.4
112 | CCN(CCc1ccccc1)Cn1nc(C)c2c(C)onc2c1=O | -1.87
113 | O=C(c1cnc(-c2cccs2)s1)N1CCCC(n2cccn2)C1 (configuration not stated) | -4.26
114 | CCN1CCN(C(=O)c2cnn(-c3ccccc3Cl)c2)CC1 | -8.2
115 | Cc1cccc(-c2[nH]ncc2CNCC2CCN(CC(C)O)CC2)c1 (configuration not stated) | -4.28
116 | Cc1cccc(CNC2CCCc3c2cnn3Cc2ccccc2)c1 (configuration not stated) | -7.85
117 | Cc1nn(C)c(C)c1CNCc1ccc(N2CCOCC2)nc1 | 3.85
